Measurements as given in patent US7507739B2, “6-[(substituted)phenyl]triazolopyrimidines as anticancer agents” (Wyeth, priority 2003, dated 2009).
Marks after values point to notes of the source that are not given here.

Assays:
[1] = system: LoVo Human Colon Carcinoma; experiment: Human tumor xenograft test, LoVo; type: in vivo, athymic mice; settings: for T/C on day 0 / T/C on day 7 / T/C on day 14 / T/C on day 21 / T/C on day 28 / T/C on day 35: days 1, 7, 14
Experimental: (§1) The ability of compounds of this invention to inhibit tumor growth in animals is studied in the athymic mouse xenograft standard pharmacological test. Female nu/nu mice in an outbred albino background are obtained from Charles River Laboratories (Wilmington, Mass.). Animals are injected subcutaneously on the flank with the desired tumor cell suspension. Several days later, mice with tumors of approximately 150 mm^3 are selected from those injected (staged) and randomly distributed into groups of 5-10. The day of staging is called day 0. Compounds of the invention, usually formulated in saline (exceptions are noted in tables), are administered to animals by intravenous injection or oral gavage on various schedules starting on day 0 or 1, as noted in the tables. The control group in each experiment is dosed with vehicle on the same schedule. Tumor size is measured every 3-7 days with calipers in two orthogonal dimensions, and tumor volume is calculated from the formula volume=[(length×width^2)/2].
(§2) Tumor/Control (T/C) is obtained by dividing the mean tumor volume of the treated group by the mean tumor volume of the control group on each measurement day. A treatment dose is defined as active if it produced a statistically significant T/C of 0.50 or less. A p value≦0.05, determined by one-side Student's t-test, is required for statistical significance. A treatment dose is defined as toxic if more than 10% of the animals died from a compound-related toxicity.

[2] = system: U87-MG Human Glioblastoma; experiment: Human tumor xenograft test, U87-MG; type: in vivo, athymic mice; settings: for T/C on day 0 / T/C on day 3 / T/C on day 7 / T/C on day 10 / T/C on day 13 / T/C on day 17: U87-MG, days 1, 5, 9
Experimental: as §1, §2

[3] = system: LOX Human Melanoma; experiment: Human tumor xenograft test, LOX; type: in vivo, athymic mice; settings: for tumor growth inhibition (activity call): LOX melanoma; for T/C on day 0 / T/C on day 7 / T/C on day 13: LOX, days 1, 5, 9, 13
Experimental: as §1, §2

[4] = system: DLD1 Human Colon Carcinoma; experiment: Human tumor xenograft test, DLD1; type: in vivo; settings: days 1, 5, 9, 13
Experimental: as §1, §2

[5] = system: A549 Human Non-Small Cell Lung Carcinoma; experiment: Human tumor xenograft test, A549; type: in vivo, athymic mice; settings: days 1, 5, 9, 13, 17, 21, 25, 29
Experimental: as §1, §2

[6] = 1 mg/kg intravenously on days 1, 5, 9, and 13
[7] = 6 and 3 mg/kg intravenously on days 1, 5, 9, and 13

C[C@H](Nc1c(-c2c(F)cc(OCCCO)cc2F)c(Cl)nc2ncnn12)C(F)(F)F [Example 20, 3-[4-(5-Chloro-7-{[(1S)-2,2,2-trifluoro-1-methylethyl]amino}[1,2,4]triazolo[1,5-a]pyrimidin-6-yl)-3,5-difluorophenoxy]propan-1-ol]
T/C on day 0 ([1]; 30 mg/kg PO): 1.00
T/C on day 7 ([1]; 30 mg/kg PO): 0.37*
T/C on day 14 ([1]; 30 mg/kg PO): 0.35**
T/C on day 21 ([1]; 30 mg/kg PO): 0.35
T/C on day 28 ([1]; 30 mg/kg PO): 0.28
T/C on day 35 ([1]; 30 mg/kg PO): 0.35
T/C on day 0 ([1]; 50 mg/kg PO): 1.00
T/C on day 7 ([1]; 50 mg/kg PO): 0.27**
T/C on day 14 ([1]; 50 mg/kg PO): 0.46**
T/C on day 21 ([1]; 50 mg/kg PO): 0.33**
T/C on day 28 ([1]; 50 mg/kg PO): 0.29**
T/C on day 35 ([1]; 50 mg/kg PO): 0.31*
tumor growth inhibition (activity call) ([1]; orally on days 1, 7 and 14 at 50 and 30 mg/kg): active

CNCCCOc1cc(F)c(-c2c(Cl)nc3ncnn3c2NCC(F)(F)F)c(F)c1.Cl [Example 3a, 5-Chloro-6-{2,6-difluoro-4-[3-(methylamino)propoxy]phenyl}-N-(2,2,2-trifluoroethyl)[1,2,4]triazolo[1,5-a]pyrimidin-7-amine hydrogen chloride Salt]
T/C on day 0 ([2]; 10 mg/kg PO): 0.99
T/C on day 3 ([2]; 10 mg/kg PO): 1.08
T/C on day 7 ([2]; 10 mg/kg PO): 0.85
T/C on day 10 ([2]; 10 mg/kg PO): 0.69**
T/C on day 13 ([2]; 10 mg/kg PO): 0.52**
T/C on day 17 ([2]; 10 mg/kg PO): 0.51**
T/C on day 0 ([2]; 20 mg/kg PO): 1.01
T/C on day 3 ([2]; 20 mg/kg PO): 0.90
T/C on day 7 ([2]; 20 mg/kg PO): 0.73
T/C on day 10 ([2]; 20 mg/kg PO): 0.63**
T/C on day 13 ([2]; 20 mg/kg PO): 0.42**
T/C on day 17 ([2]; 20 mg/kg PO): 0.39**
T/C on day 0 ([2]; 40 mg/kg PO): 1.02
T/C on day 3 ([2]; 40 mg/kg PO): 0.73
T/C on day 7 ([2]; 40 mg/kg PO): 0.65**
T/C on day 10 ([2]; 40 mg/kg PO): 0.48**
T/C on day 13 ([2]; 40 mg/kg PO): 0.30**
T/C on day 17 ([2]; 40 mg/kg PO): 0.20**
tumor growth inhibition (activity call) ([2]; U-87 MG, oral dosing, 40, 20, and 10 mg/kg): active
tumor growth inhibition (activity call) [3, 6]: not at 1 mg/kg
tumor growth inhibition (activity call) [3, 7]: active
T/C on day 0 ([3]; 1 mg/kg IV): 1.00
T/C on day 7 ([3]; 1 mg/kg IV): 0.77
T/C on day 13 ([3]; 1 mg/kg IV): 0.85
T/C on day 0 ([3]; 3 mg/kg IV): 1.00
T/C on day 7 ([3]; 3 mg/kg IV): 0.34*
T/C on day 13 ([3]; 3 mg/kg IV): 0.38
T/C on day 0 ([3]; 6 mg/kg IV): 1.00
T/C on day 7 ([3]; 6 mg/kg IV): 0.22**
T/C on day 13 ([3]; 6 mg/kg IV): 0.07**
T/C on day 0 ([4]; DLD1, 10 mg/kg IV): 1.00
T/C on day 7 ([4]; DLD1, 10 mg/kg IV): 0.77
T/C on day 14 ([4]; DLD1, 10 mg/kg IV): 0.75
T/C on day 21 ([4]; DLD1, 10 mg/kg IV): 0.84
T/C on day 0 ([4]; DLD1, 20 mg/kg IV): 1.00
T/C on day 7 ([4]; DLD1, 20 mg/kg IV): 0.55
T/C on day 14 ([4]; DLD1, 20 mg/kg IV): 0.56
T/C on day 21 ([4]; DLD1, 20 mg/kg IV): 0.73
T/C on day 0 ([4]; DLD1, 25 mg/kg IV): 1.00
T/C on day 7 ([4]; DLD1, 25 mg/kg IV): 0.59
T/C on day 14 ([4]; DLD1, 25 mg/kg IV): 0.46
T/C on day 21 ([4]; DLD1, 25 mg/kg IV): 0.60

CN(C)CCCOc1cc(F)c(-c2c(Cl)nc3ncnn3c2NCC(F)(F)F)c(F)c1.Cl [Example 4a, 5-Chloro-6-{4-[3-(dimethylamino)propoxy]-2,6-difluorophenyl}-N-(2,2,2-trifluoroethyl)[1,2,4]triazolo[1,5-a]pyrimidin-7-amine Hydrogen chloride Salt]
T/C on day 0 ([5]; A549, 10 mg/kg IV): 0.98
T/C on day 7 ([5]; A549, 10 mg/kg IV): 0.81
T/C on day 14 ([5]; A549, 10 mg/kg IV): 0.74
T/C on day 21 ([5]; A549, 10 mg/kg IV): 0.68
T/C on day 27 ([5]; A549, 10 mg/kg IV): 0.80
T/C on day 35 ([5]; A549, 10 mg/kg IV): 0.79
T/C on day 0 ([5]; A549, 20 mg/kg IV): 0.99
T/C on day 7 ([5]; A549, 20 mg/kg IV): 0.86
T/C on day 14 ([5]; A549, 20 mg/kg IV): 0.80
T/C on day 21 ([5]; A549, 20 mg/kg IV): 0.72
T/C on day 27 ([5]; A549, 20 mg/kg IV): 0.78
T/C on day 35 ([5]; A549, 20 mg/kg IV): 0.77
T/C on day 0 ([5]; A549, 40 mg/kg IV): 0.97
T/C on day 7 ([5]; A549, 40 mg/kg IV): 0.71
T/C on day 14 ([5]; A549, 40 mg/kg IV): 0.53**
T/C on day 21 ([5]; A549, 40 mg/kg IV): 0.46**
T/C on day 27 ([5]; A549, 40 mg/kg IV): 0.52**
T/C on day 35 ([5]; A549, 40 mg/kg IV): 0.47**
tumor growth inhibition (activity call) [3, 6]: not at 1 mg/kg
tumor growth inhibition (activity call) [3, 7]: active
T/C on day 0 ([3]; 1 mg/kg IV): 1.00
T/C on day 7 ([3]; 1 mg/kg IV): 0.80
T/C on day 13 ([3]; 1 mg/kg IV): 0.79
T/C on day 0 ([3]; 3 mg/kg IV): 1.00
T/C on day 7 ([3]; 3 mg/kg IV): 0.20**
T/C on day 13 ([3]; 3 mg/kg IV): 0.19**
T/C on day 0 ([3]; 6 mg/kg IV): 1.00
T/C on day 7 ([3]; 6 mg/kg IV): 0.21**
T/C on day 13 ([3]; 6 mg/kg IV): 0.14**
T/C on day 0 ([4]; DLD1, 10 mg/kg IV): 1.00
T/C on day 7 ([4]; DLD1, 10 mg/kg IV): 0.56
T/C on day 14 ([4]; DLD1, 10 mg/kg IV): 0.68
T/C on day 21 ([4]; DLD1, 10 mg/kg IV): 0.74
T/C on day 0 ([4]; DLD1, 20 mg/kg IV): 1.00
T/C on day 7 ([4]; DLD1, 20 mg/kg IV): 0.55
T/C on day 14 ([4]; DLD1, 20 mg/kg IV): 0.44
T/C on day 21 ([4]; DLD1, 20 mg/kg IV): 0.61
T/C on day 0 ([4]; DLD1, 25 mg/kg IV): 1.00
T/C on day 7 ([4]; DLD1, 25 mg/kg IV): 0.63
T/C on day 14 ([4]; DLD1, 25 mg/kg IV): 0.49
T/C on day 21 ([4]; DLD1, 25 mg/kg IV): 0.48

C[C@H](Nc1c(-c2c(F)cc(OCCCN(C)C)cc2F)c(Cl)nc2ncnn12)C(F)(F)F.Cl [Example 1a, 5-chloro-6-{4-[3-(dimethylamino)propoxy]-2,6-difluorophenyl}-N-[(1S)-2,2,2-trifluoro-1-methylethyl][1,2,4]triazolo[1,5-a]pyrimidin-7-amine hydrogen chloride Salt]
tumor growth inhibition (activity call) [3, 6]: not at 1 mg/kg
tumor growth inhibition (activity call) [3, 7]: active
T/C on day 0 ([3]; 1 mg/kg IV): 1.00
T/C on day 7 ([3]; 1 mg/kg IV): 0.80
T/C on day 13 ([3]; 1 mg/kg IV): 1.02
T/C on day 0 ([3]; 3 mg/kg IV): 1.00
T/C on day 7 ([3]; 3 mg/kg IV): 0.13**
T/C on day 13 ([3]; 3 mg/kg IV): 0.17*
T/C on day 0 ([3]; 6 mg/kg IV): 1.00
T/C on day 7 ([3]; 6 mg/kg IV): 0.12**
T/C on day 13 ([3]; 6 mg/kg IV): 0.07**
T/C on day 0 ([4]; DLD1, 10 mg/kg IV): 1.00
T/C on day 7 ([4]; DLD1, 10 mg/kg IV): 0.63
T/C on day 14 ([4]; DLD1, 10 mg/kg IV): 0.51
T/C on day 21 ([4]; DLD1, 10 mg/kg IV): 0.58
T/C on day 0 ([4]; DLD1, 15 mg/kg IV): 1.00
T/C on day 7 ([4]; DLD1, 15 mg/kg IV): 0.21**
T/C on day 14 ([4]; DLD1, 15 mg/kg IV): 0.25
T/C on day 21 ([4]; DLD1, 15 mg/kg IV): 0.31
T/C on day 0 ([4]; DLD1, 20 mg/kg IV): 1.00
T/C on day 7 ([4]; DLD1, 20 mg/kg IV): 0.31**
toxicity of treatment dose ([4]; DLD1 xenograft mice, 20 mg/kg IV, day 14): Toxic
